Columns and labels:
Type in all cases: cell-based
[1] = tested on: Citrobacter freundii species complex; assay: MIC broth microdilution, Citrobacter freundii species complex isolate; details: isolate 1056585, Elevated AmpC, LTV-17 alone
Experimental: (§1) Bacterial isolates: Representative resistant strains of Escherichia coli, Citrobacter freundii, Enterobacter cloacae, Klebsiella pneumoniae, and Proteus mirabilis harboring class-C β-lactamase producers were used to test for the synergistic effect of adding a β-lactamase inhibitor (II^j) to the antibiotic LTV-17 (I) (Table 1).
(§2) Minimum inhibitory concentration (MIC) test procedure: All antibiotics were tested by both the broth microdilution methods according to the Clinical and Laboratory Standards Institute (CLSI) recommendations (M07), and a modified CLSI method that included iron-depleted CA-MHB protocol. The MIC was defined as the lowest concentration of the antibiotic to produce clear wells in the 96-well plates. MIC interpretations were based on the CLSI M100-S23 (2013) and European Committee on Antimicrobial Susceptibility Testing (EUCAST; 2013) breakpoint criteria. Synergistic activity was calculated based on the number of two-fold dilution reduction of the MIC using LTV-17 (I) plus β-lactamase inhibitor Avibactam (II^j) compared to MIC of LTV-17 (I) tested alone against the same strains. The higher the number of two-fold reduction, the stronger the synergy is.
(§3) Avibactam was tested at a fixed concentration of 4 μg/mL.

[2] = tested on: Enterobacter cloacae species complex; assay: MIC broth microdilution, Enterobacter cloacae species complex isolates; details: LTV-17 alone
Experimental: as §1, §2, §3

[3] = tested on: Klebsiella pneumoniae; assay: MIC broth microdilution, Klebsiella pneumoniae isolate; details: isolate 1167846, CMY-DHA, LTV-17 alone
Experimental: as §1, §2, §3

[4] = tested on: Proteus mirabilis; assay: MIC broth microdilution, Proteus mirabilis isolate; details: isolate 1159308, CMY-DHA, LTV-17 alone
Experimental: as §1, §2, §3

[5] = tested on: Escherichia coli; assay: MIC broth microdilution, Escherichia coli isolates; details: LTV-17 alone
Experimental: as §1, §2, §3

MIC [1]: 0.5 µg/mL | MIC ([2]; isolate 552115, Elevated AmpC): 2 µg/mL | MIC ([2]; isolate 1057610, Elevated AmpC): 0.25 µg/mL | MIC ([2]; isolate 1083996, Elevated AmpC): 0.5 µg/mL | MIC [3]: 1 µg/mL | MIC [4]: 4 µg/mL | MIC ([5]; isolate 827002, Elevated AmpC): 0.03 µg/mL | MIC ([5]; isolate 841741, Elevated AmpC): 0.25 µg/mL | MIC ([5]; isolate 850348, Elevated AmpC): 1 µg/mL | MIC ([5]; isolate 850361, Elevated AmpC): 0.06 µg/mL | MIC ([5]; isolate 1043714, Elevated AmpC): 0.06 µg/mL | MIC ([5]; isolate 1047951, Elevated AmpC): 0.12 µg/mL | MIC ([5]; isolate 1152443, CMY-DHA): 0.5 µg/mL | MIC ([5]; isolate 1160345, CMY-DHA): 0.5 µg/mL | MIC ([5]; isolate 1160670, CMY-DHA): 0.12 µg/mL | MIC ([5]; isolate 1165173, CMY-DHA): 0.25 µg/mL | MIC ([5]; isolate 1165490, CMY-DHA): 0.5 µg/mL | MIC ([5]; isolate 1165546, CMY-DHA): 0.5 µg/mL | MIC ([5]; isolate 1167103, CMY-DHA): 0.5 µg/mL | MIC ([5]; isolate 1167174, CMY-DHA): 4 µg/mL
Compound: CC(C)(O/N=C(\C(=O)N[C@H]1CON(C2(C(=O)O)C[C@H](N3C(=O)c4cc(O)c(O)cc4C3=O)C(=O)O2)C1=O)c1csc(N)n1)C(=O)O (stereo partly drawn) [LTV-17, (4S)-2-[(4S)-4-{[(2Z)-2-(2-amino-1,3-thiazol-4-yl)-2-{[(2-carboxypropan-2-yl)oxy]imino}acetyl]amino}-3-oxo-1,2-oxazolidin-2-yl]-4-(5,6-dihydroxy-1,3-dioxo-1,3-dihydro-2H-isoindol-2-yl)-5-oxooxolane-2-carboxylic acid]

— US11998533B2, “Pharmaceutical compositions comprising LTV-17 and beta-lactamase inhibitors and their use as antibacterial agents” (FEDORA PHARMACEUTICALS INC., priority 2021, dated 2024)
